This note sets out measurements from the supplement of paper PMC5580409.

Bounds are passed on as bounds.

In this experiment the test system is Plasmodium falciparum 3D7. As to the kind of experiment: pEC50, asexual blood-stage growth inhibition. As to conditions: 72 h. Here is the method: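 Held-out test set measured in the Guy lab in 2014 with the same procedure as the primary St. Jude screen. P. falciparum 3D7 blood-stage culture (2% hematocrit, 1% parasitemia) was treated with compound for 72 h at 37 °C, and growth was read by SYBR Green I fluorescence. EC50 came from a four-parameter Hill fit over a 10-point dilution series […].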
`O=C(CNCc1ccccc1)c1ccc(Br)cc1`: the pEC50 is less than 4.82.
Under `Cc1ccc(OCC(O)CNC2CCCCC2)cc1` (centres undefined) stands 5.83; under `CCOc1ccc(NCC(O)Cn2c3ccc(Cl)cc3c3cc(Cl)ccc32)cc1` (centres undefined), 5.13.
`O=c1c(Oc2ccccc2)c(C(F)(F)F)oc2c(CN3CCCCC3)c(O)ccc12` displayed a pEC50 of less than 4.82.
`OC(CNCc1cccc(Cl)c1)c1ccccc1` (centres undefined): the pEC50 is less than 4.82.
To `CCOC(=O)C1=C(C)NC2=C(C(=O)CC(c3ccc(Cl)cc3)C2)C1c1cc(OC)c(OC)c(OC)c1` (centres undefined) belongs less than 4.82.
Molecule `OCCC1CN(Cc2cc(Cl)ccc2O)CCN1CCCc1ccccc1` (centres undefined) came in with a pEC50 of less than 4.82.
The molecule `Cc1cccc(Oc2c(C(F)(F)F)oc3c(CN4CCN(C)CC4)c(O)ccc3c2=O)c1` displayed a pEC50 of 5.27.
Molecule `CC(=O)Nc1cccc(Nc2nc(N3CCCCC3)nc(N(c3ccccc3)c3ccccc3)n2)c1` returned a pEC50 of 5.61.
Under `OC(CN1CCN(Cc2ccccc2)CC1)Cn1c2ccc(Cl)cc2c2cc(Cl)ccc21` (centres undefined) stands less than 4.82.
`COc1ccc(CCNCC(O)Cn2c3ccccc3c3ccccc32)cc1OC` (centres undefined) registered a pEC50 of 5.26.
In turn, `Cc1cccc(C2(c3cccc(C)c3)CC2C(=O)Nc2cc([N+](=O)[O-])ccc2O)c1` (centres undefined) returned a pEC50 of 5.27.
Under `Nc1cccc(-c2nc3cc(Oc4ccc5[nH]c(-c6cccc(N)c6)nc5c4)ccc3[nH]2)c1` stands less than 4.82; under `O=C(Cc1ccccc1)Nc1ccc(-c2nc3cc(-c4nc5cc(NC(=O)Cc6ccccc6)ccc5[nH]4)ccc3[nH]2)cc1`, less than 4.82; under `COc1cc(OC)cc(C(=O)Nc2ccc(-c3nc4cc(C)ccc4[nH]3)cc2)c1`, 5.29.
`CC(C)N1CCN(Cc2cc(Br)ccc2O)CC1` had a pEC50 of less than 4.82.
Under `O=C(Nc1ccc(-c2nc3ccccc3[nH]2)cc1)c1cncc(Br)c1` stands 5.35; under `O=C(c1ccccc1)N1CCN(c2ccc([N+](=O)[O-])c(NC3CC3)c2)CC1`, less than 4.82; under `OC(CN1CCCCCC1)Cn1c2ccccc2c2ccccc21` (centres undefined), less than 4.82.
Under `COc1ccc(CCNC(=O)c2cn(C3CCCCC3)cc(C(=O)NC(C)(C)C)c2=O)cc1` stands 6.95; under `Cc1ccccc1OCC(O)CNC1CCCCC1` (centres undefined), less than 4.82.
`COC(=O)c1ccc(NC(=O)/C=C/c2ccccc2Cl)cc1` had a pEC50 of 5.26.
To `C=CCn1c(=N)n(CC(O)c2cccc(Br)c2)c2ccccc21` (centres undefined) belongs 5.66; to `COc1ccc(NCC(O)Cn2c3ccc(Cl)cc3c3cc(Cl)ccc32)c(OC)c1` (centres undefined), less than 4.82.
`CCc1ccc(NC(=O)/C=C/c2ccccc2Cl)cc1` gave a pEC50 of 6.69.
Under `COc1ccccc1-c1c(C(F)(F)F)oc2c(CN3CCCC3)c(O)ccc2c1=O` stands less than 4.82.
To `O=C1CC(c2ccc(Cl)c([N+](=O)[O-])c2)C2=C(CC(c3cccs3)CC2=O)N1` (centres undefined) belongs less than 4.82.
Regarding `Cc1ccc2[nH]c(-c3ccc(Br)cc3)nc2c1`, the pEC50 is less than 4.82.
To `CC1CCC(C(C)C)C(OCC(O)CNC2CCCC2)C1` (centres undefined) belongs 5.46; to `CCCCn1c(=N)n(CC(=O)c2ccc(Cl)cc2)c2ccccc21`, less than 4.82; to `Oc1ccc(Cl)cc1CN1CCCC(N2CCCC2)C1` (centres undefined), less than 4.82.
`CCN1/C(=C/c2sc3ccc(O)cc3[n+]2CC)C=Cc2cc(C)ccc21` gave a negative-log EC50 (pEC50) of 6.3.
In turn, `COc1ccc(Oc2c(C(F)(F)F)oc3c(CN4CCCC(C)C4)c(O)ccc3c2=O)cc1` (centres undefined) had a pEC50 of less than 4.82.
Under `CCOC(=O)c1cccc(NC(=O)CC2C(=O)N(c3ccc(F)cc3)C(=O)N2Cc2ccccn2)c1` (centres undefined) stands less than 4.82; under `CCN(CC)c1nc(Nc2cccc(Br)c2)nc(Nc2cc(C)ccc2C)n1`, less than 4.82.
Under `CCOc1cc(C2C(C(=O)OC(C)CC)=C(C)NC3=C2C(=O)CC(c2ccc(Cl)cc2)C3)ccc1O` (centres undefined) stands less than 4.82.
To `COc1ccc(OC)c(C2CC(=O)NC3=C2C(=O)CC(c2ccc(OC)c(OC)c2)C3)c1` (centres undefined) belongs less than 4.82; to `CCCCN(CCCC)CC(O)COc1ccccc1C` (centres undefined), 6.06.
`CCOC(=O)C1=C(C)NC2=C(C(=O)CC(c3ccco3)C2)C1c1ccc(OC)c(OC)c1` (centres undefined): the pEC50 is less than 4.82.
Under `N=c1n(CCN2CCCCC2)c2ccccc2n1CC(O)c1cccc(Br)c1` (centres undefined) stands 5.73; under `CN(C)c1ccc(NC(=O)/C=C/c2cccc(Cl)c2)cc1`, 6.39; under `CCOc1cc2c(cc1OCC)C(c1ccc(O)cc1)NCC2` (centres undefined), less than 4.82.
Under `O=C1CC(c2c(F)cccc2Cl)C2=C(CC(c3ccc(F)cc3)CC2=O)N1` (centres undefined) stands less than 4.82; under `COc1ccc(OC)c(C2CC(=O)C3=C(C2)NC(=O)CC3c2ccc(Cl)cc2Cl)c1` (centres undefined), less than 4.82.
Turning to `CCOc1ccc(-c2nonc2NC(=O)c2ccco2)cc1`, the pEC50 stood at 6.71.
To `OCCC1CN(Cc2cc(Cl)ccc2O)CCN1CCc1ccccc1` (centres undefined) belongs less than 4.82; to `N=c1n(CCN2CCCCC2)c2ccccc2n1CC(O)COc1ccc(Cl)cc1` (centres undefined), 5.33; to `OC(CNCCc1ccccc1)COc1ccccc1Cl` (centres undefined), 5.3.
Under `CC(C)c1ccc(/C=C/C(=O)Nc2cccc(F)c2)cc1` stands less than 4.82; under `OC(CNCCc1ccccc1)c1ccccc1` (centres undefined), 5.05.
With `Cc1cc(C)nc(Nc2ncc(O)n2-c2cccc(C(F)(F)F)c2)n1`, the pEC50 is less than 4.82.
With `O=C(NCC1CCCCC1)c1cn(C2CC2)cc(C(=O)NC2CCN(Cc3ccccc3)CC2)c1=O`, the pEC50 was less than 4.82.
Under `OC(CNc1cccc2ccccc12)Cn1c2ccc(Cl)cc2c2cc(Cl)ccc21` (centres undefined) stands 5.36; under `CCOc1cc(C2CC(=O)NC3=C2C(=O)CC(c2ccc(OC)c(OC)c2)C3)cc(Cl)c1O` (centres undefined), 6.68; under `O=C(NC1CCN(Cc2ccccc2)CC1)c1cc(-c2ccncc2)nc2ccc(Cl)cc12`, 5.54.
To `CCC(C(=O)Nc1ccc(-c2nc3ccccc3[nH]2)cc1)c1ccccc1` (centres undefined) belongs less than 4.82; to `Cc1cc(Cl)ccc1OCC(O)CNC1CCCC1` (centres undefined), 5.18.
To `CC1CCN(CC(O)Cn2c3ccc(Cl)cc3c3cc(Cl)ccc32)CC1` (centres undefined) belongs less than 4.82.
Consider `O=C(NC1CCCCC1)c1cn(C2CC2)cc(C(=O)NC2CCN(Cc3ccccc3)CC2)c1=O`, for which the pEC50 was less than 4.82.
`CCOc1ccc(NC(=O)/C=C/c2ccccc2Cl)cc1` showed a pEC50 of 6.34.
`OC(CNC1CCCC1)COc1ccccc1-c1ccccc1` (centres undefined) returned a pEC50 of less than 4.82.
Under `CC(C)(C)NC(=O)c1cn(C2CCCCC2)cc(C(=O)NC2CCN(Cc3ccccc3)CC2)c1=O` stands less than 4.82.
On to `OCCC1CN(Cc2cc(Cl)ccc2O)CCN1Cc1ccccc1` (centres undefined), for which the pEC50 was less than 4.82.
Under `CCC(C)c1ccc(NC(=O)/C=C/c2cccc(Cl)c2)cc1` (centres undefined) stands less than 4.82.
On to `O=C(Nc1ccc([N+](=O)[O-])cc1O)C1CC1(c1ccccc1)c1ccccc1` (centres undefined), for which the pEC50 was less than 4.82.
To `O=C(Cc1ccc(Br)cc1)Nc1cccc(-c2nc3ccccc3[nH]2)c1` belongs less than 4.82; to `O=C(NCC1CCCCC1)c1cn(C2CC2)cc(C(=O)NC2CCN(Cc3ccccc3)C2)c1=O` (centres undefined), less than 4.82; to `CN(C)CCCn1c(=N)n(CC(O)c2ccc(Br)cc2)c2ccccc21` (centres undefined), 5.54.
Consider `CC(C)CCn1cc(C(=O)NC(C)(C)C)c(=O)c(C(=O)N2CCN(C/C=C/c3ccccc3)CC2)c1`, for which the negative logarithm of the EC50 (pEC50) is less than 4.82.
Molecule `OC(CNCc1ccc(-c2ccccc2)cc1)c1ccccc1` (centres undefined) gave a pEC50 of less than 4.82.
Under `Cc1ccc(OCCN(C)C(=O)c2cn(C3CCCCC3)cc(C(=O)NC(C)(C)C)c2=O)cc1` stands 5.03; under `Cc1ccc2c(c1)c1c3n2CCCN(Cc2ccc(Br)cc2)C3CCC1` (centres undefined), less than 4.82.
Under `Cc1ccc(C(=O)Cn2c(=N)n(CCN3CCCCC3)c3ccccc32)cc1` stands less than 4.82; under `Cc1ccc(OCC(O)CNC2CCCC2)cc1C` (centres undefined), 5.85; under `COc1cc(C2CC(=O)NC3=C2C(=O)CC(c2ccc(F)cc2)C3)c(OC)cc1Br` (centres undefined), less than 4.82.
To `N=c1n(CCN2CCCCC2)c2ccccc2n1CC(O)c1cccc2ccccc12` (centres undefined) belongs 5.49; to `OC(CNc1cccc2ccccc12)Cn1c2ccccc2c2ccccc21` (centres undefined), less than 4.82; to `C=CCn1c(=N)n(CC(O)c2ccc(Br)cc2)c2ccccc21` (centres undefined), 5.62.
On to `O=C(Nc1cc(Cl)ccc1O)c1cnn2c1NC(c1ccc(Br)cc1)CC2C(F)(F)F` (centres undefined), for which the pEC50 is less than 4.82.
Consider `CCn1c(CSCc2ccc(F)cc2)nnc1SCC(=O)Nc1cc(C(F)(F)F)ccc1Cl`, for which the pEC50 is less than 4.82.
To `O=C(Cc1ccccc1)Nc1ccc(-c2nc3cc(NC(=O)Cc4ccccc4)ccc3[nH]2)cc1` belongs less than 4.82; to `CCn1ncc(Cl)c1C(=O)Nc1ccc(C)c([N+](=O)[O-])c1`, less than 4.82.
For the molecule `Cc1ccc(OCC(O)Cn2c(=N)n(CCN3CCOCC3)c3ccccc32)cc1` (centres undefined), the pEC50 is less than 4.82.
To `COc1ccccc1-c1cc(C(=O)N2CCC(Cc3ccccc3)CC2)c2ccccc2n1` belongs less than 4.82; to `Nc1ccc(C(=O)Nc2ccc(-c3nc4cc(NC(=O)c5ccc(N)cc5)ccc4[nH]3)cc2)cc1`, less than 4.82.
`c1cc(-c2nc3ccccc3[nH]2)nc(-c2nc3ccccc3[nH]2)c1` had a pEC50 of 5.39.
The molecule `COc1ccc(CN2CCCn3c4c(c5cc(C)ccc53)CCCC42)c(OC)c1` (centres undefined) yielded a pEC50 of less than 4.82.
`O=C(Nc1ccncc1)C1CC1c1ccccc1` (centres undefined) registered a pEC50 of less than 4.82.
Under `OC(CNc1ccccc1)Cn1c2ccc(Cl)cc2c2cc(Cl)ccc21` (centres undefined) stands 5.36.
Consider `CCOc1cc(C2C(C(=O)OCCOc3ccccc3)=C(C)NC3=C2C(=O)CC(c2ccc(Cl)cc2)C3)ccc1O` (centres undefined), for which the pEC50 was less than 4.82.
The molecule `OCC(O)Cn1c2ccc(Br)cc2c2cc(Br)ccc21` (centres undefined) returned a pEC50 of less than 4.82.
For the molecule `Cc1ccccc1Cn1c(=N)n(CC(O)c2ccc(Cl)c(Cl)c2)c2ccccc21` (centres undefined), the pEC50 was 6.39.
With `Cc1ccccc1NCC(O)Cn1c2ccc(Cl)cc2c2cc(Cl)ccc21` (centres undefined), the pEC50 is 5.44.
Under `COc1ccc(C2CC(=O)C3=C(C2)NC(=O)CC3c2ccc(Cl)cc2Cl)cc1OC` (centres undefined) stands 5.7.
